# From patent US20150133495A1 (ViroCura Therapeutics, Inc., priority 2013, published 2015)
# System: HCV replicon (HCV1b sub-genomic, Huh-7 cells)
# Assay: HCV replicon RNA replication assay (luciferase reporter)
# Format: cell-based, Hepatitis C virus (CON-1 genotype b)
# Conditions: Hepatitis C virus, Huh-7
# Description: All curve fitting was conducted using non-linear regression analyses from PRISM (version 4.0c, GraphPad Inc.) and the determination of Rmax and EC50 or IC50 parameters were obtained from sigmoidal dose-response phase (variable slope) equation.
# The replicon HCV1b is generated based on the wild-type sequence CON-1 genotype b (GenBank accession number AJ238799; Lohmann et al., Science 1999, 285: 110-113) and expressed the sub-genomic fragment HCV NS3-NS4A-NS4B-NS5A-NS5B. The replicon contain a hybrid HCV-IRES 5′UTR, a modified luciferase reporter gene expressed as a luciferase-Ubi-neomycin phosphotransferase gene fusion and an EMCV IRES NS3-NS5B subgenomic fragment with its 3′UTR. To generate cell lines harboring the replicon, Huh-7 cells are electroporated with purified in vitro HCV1b RNA transcripts and stable cell lines are selected in the presence of G418. Stable replicon cell lines are established as described in Science 1999, 285: 110-113. The amount of luciferase expressed by selected cells directly correlates with the level of HCV RNA replication, as measured by real-time PCR.
# Stable HCV replicon cells are maintained in Dulbecco's Modified Eagle Medium (DMEM) supplemented with 10% FBS and 0.5 mg/ml G418. During the assay, DMEM supplemented with 10% FBS, containing 0.5% DMSO and lacking G418 are used as assay medium. For the assay, cell stocks are trypsinized and diluted in assay medium to distribute 7,500 cells in 96-well plates. The plates are then incubated at 37° until compound addition. Serial dilutions of the test compound are prepared in 100% DMSO, before dilution in assay medium to a final DMSO concentration of 0.5% to generate a concentration dose response curves. A fixed volume from each well of the compound dilution plate is transferred to a corresponding well of the cell culture plate. The cell culture plate is incubated at 37° C. with 5% CO2 for 72 hours. Following the 72 h incubation period, the medium is aspirated from the 96-well assay plate and a volume of 50_l of lysis buffer 100 mM Tris acetate, 20 mM Mg acetate, 2 mM EGTA, 3.6 mM ATP, 1% Brij 58, 0.7%_-mercaptoethanol containing 45_g/ml luciferine (pH 7.9) is added to each well. The luciferase activity is determined using the luciferase substrate and the luminescence is detected on a MicroBeta JET 1450 LSC & Luminescence Counter (Perkin Elmer) instrument. The luminescence in each well of the culture plate is a measure of the amount of HCV RNA replication in the presence of various concentrations of inhibitor. The % inhibition is calculated for each inhibitor concentration and used to determine the concentration that results in 50% inhibition of HCV replication (EC50).
row,SMILES,EC50 [nM]
1,"Cc1noc(C)c1C(=O)O/N=C(\N)Cc1ccc(-c2csnn2)cc1 [Compound 63, reference compound]",500 to 1000
2,"Cc1noc(-c2ccc(Cl)cc2)c1C(=O)O/N=C(\N)c1ccc(Cl)cc1 [Compound 60, reference compound]",500 to 1000

# Same assay, conditions: Hepatitis C virus, Huh-7, 72 h, read-out: EC50 (Range)
row,SMILES,EC50 [nM]
1,"CN/C(=N\OC(=O)c1c(-c2ccccc2Cl)noc1C)c1ccc2c(c1)OCO2 [Example 14, (Z)—N′-((3-(2-chlorophenyl)-5-methylisoxazole-4-carbonyl)oxy)-N-methylbenzo[d][1,3]dioxole-5-carboximidamide]",< 500
2,"Cc1cccc(C)c1C(=O)O/N=C(\N)c1ccccc1OCc1ccc(F)cc1 [Example 41, (Z)—N′-((2,6-dimethylbenzoyl)oxy)-2-((4-fluorobenzyl)oxy)benzimidamide]",< 500
3,"Cc1noc(C)c1C(=O)O/N=C(\N)c1ccc(Oc2ccccc2)cc1 [Example 31, (Z)—N′-((3,5-dimethylisoxazole-4-carbonyl)oxy)-4-phenoxybenzimidamide]",1000 to 10000
4,"COc1ccccc1C/C(N)=N/OC(=O)c1c(-c2ccccc2Cl)noc1C(C)C [Example 15, (Z)—N′-((3-(2-chlorophenyl)-5-isopropylisoxazole-4-carbonyl)oxy)-2-(2-methoxyphenyl)acetimidamide]",< 500
5,"COCc1onc(-c2ccccc2Cl)c1C(=O)O/N=C(\N)c1ccc2c(c1)OCO2 [Example 16, (Z)—N′-((3-(2-chlorophenyl)-5-(methoxymethyl)isoxazole-4-carbonyl)oxy)benzo[d][1,3]dioxole-5-carboximidamide]",500 to 1000
6,"Cc1cccc(-c2ccccc2)c1C(=O)O/N=C(\N)c1ccc(OCc2ccc(Cl)cc2)cc1 [Example 29, (Z)-4-((4-chlorobenzyl)oxy)-N′-((3-methyl-[1,1′-biphenyl]-2-carbonyl)oxy)benzimidamide]",< 500
7,"Cc1ccc(/C(N)=N/OC(=O)c2cc(C)oc2C)cc1 [Example 25, (Z)—N′-((2,5-dimethylfuran-3-carbonyl)oxy)-4-methylbenzimidamide]",1000 to 10000
8,"N/C(=N\OC(=O)c1ccccc1C(F)(F)F)c1ccc2c(c1)OCO2 [Example 35, (Z)—N′-((2-(trifluoromethyl)benzoyl)oxy)benzo[d][1,3]dioxole-5-carboximidamide]",1000 to 10000
9,"Cc1onc(-c2ccccc2Cl)c1C(=O)O/N=C(\N)c1ccc2ccccc2n1 [Example 47, (Z)—N′-((3-(2-chlorophenyl)-5-methylisoxazole-4-carbonyl)oxy)quinoline-2-carboximidamide]",1000 to 10000
10,"Cc1cc(C)c(C(=O)O/N=C(\N)c2ccc3c(c2)OCO3)c(C)c1 [Example 26, (Z)—N′-((2,4,6-rimethylbenzoyl)oxy)benzo[d][1,3]dioxole-5-carboximidamide]",< 500
11,"COc1cccc(/C(N)=N/OC(=O)c2c(-c3ccccc3Cl)noc2C)c1 [Example 50, (Z)—N′-((3-(2-chlorophenyl)-5-methylisoxazole-4-carbonyl)oxy)-3-methoxybenzimidamide]",500 to 1000
12,"N/C(=N\OC(=O)c1ccccc1-c1ccccc1C(=O)O)c1ccc2c(c1)OCO2 [Example 45, (Z)-2′-((((amino(benzo[d][1,3]dioxol-5-yl)methylene)amino)oxy)carbonyl)-[1,1′-biphenyl]-2-carboxylic acid]",> 10000
13,"CC(C)c1onc(-c2ccccc2Cl)c1C(=O)O/N=C(\N)c1ccc(OCc2ccc(Cl)cc2)cc1 [Example 12, (Z)-4-((4-chlorobenzyl)oxy)-N′-((3-(2-chlorophenyl)-5-isopropylisoxazole-4-carbonyl)oxy)benzimidamide]",500 to 1000
14,"N/C(=N\OC(=O)c1c(C(F)(F)F)cccc1C(F)(F)F)c1ccc2c(c1)OCO2 [Example 4, (Z)—N′-((2,6-bis(trifluoromethyl)benzoyl)oxy)benzo[d][1,3]dioxole-5-carboximidamide]",1000 to 10000
15,"COc1ccccc1C/C(N)=N/OC(=O)c1c(C)cccc1C [Example 7, (Z)—N′-((2,6-dimethylbenzoyl)oxy)-2-(2-methoxyphenyl)acetimidamide]",500 to 1000
16,"Cc1onc(-c2ccccc2Cl)c1C(=O)O/N=C(\N)c1ccc(-c2csnn2)cc1 [Example 36, (Z)—N′-((3-(2-chlorophenyl)-5-methylisoxazole-4-carbonyl)oxy)-4-(1,2,3-thiadiazol-4-yl)benzimidamide]",500 to 1000
17,"CC(C)OC(=O)c1ccccc1-c1ccccc1C(=O)O/N=C(\N)c1ccc2c(c1)OCO2 [Example 38, (Z)-isopropyl 2′-((((amino(benzo[d][1,3]dioxol-5-yl)methylene)amino)oxy)carbonyl)-[1,1′-biphenyl]-2-carboxylate]",< 500
18,"Cc1noc(C)c1C(=O)O/N=C(\N)c1ccc(OCc2ccc(Cl)cc2)cc1 [Example 32, (Z)-4-((4-chlorobenzyl)oxy)-N′-((3,5-dimethylisoxazole-4-carbonyl)oxy)benzimidamide]",500 to 1000
19,"N/C(=N\OC(=O)c1c(-c2ccccc2Cl)noc1-c1ccncc1)c1ccc2c(c1)OCO2 [Example 17, (Z)—N′-((3-(2-chlorophenyl)-5-(pyridin-4-yl)isoxazole-4-carbonyl)oxy)benzo[d][1,3]dioxole-5-carboximidamide]",1000 to 10000
